Experimental data: patent US20230085307A1, “PYRIDAZINONE COMPOUND AND HERBICIDE” (NISSAN CHEMICAL CORPORATION, priority 2019, published 2023)

Columns and labels:
velvetleaf [1] = assay: Test Example 4: herbicidal effect by soil treatment (Table 19, symbol M); type: in vivo, velvetleaf (Abutilon theophrasti); conditions: amount of applied herbicide 320 g/ha
How it was run: (§1)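 Herbicidal effect was rated 3 weeks after treatment, using the scoring criteria of an earlier test. The compound, formulated as an emulsion and diluted in water to a set herbicide amount, had been sprayed uniformly on soil over freshly sown seeds. Growth took place in a greenhouse at 25° C. to 30° C.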

wild oat [2] = assay: Test Example 5: herbicidal effect by foliage application, plastic box (Table 20, symbol I); type: in vivo, wild oat (Avena fatua); conditions: foliage application, AAH 320 g/ha, three weeks after application
How it was run: (§2)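 Foliar spray test: emulsion formulation diluted in water to a set application rate, sprayed onto 14-day-old plants raised in diluvial soil at 25° C to 30° C under glass. Both herbicidal effect and crop effect rated visually three weeks later.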

Italian ryegrass [3] = assay: Test Example 4: herbicidal effect by soil treatment (Table 19, symbol K); type: in vivo, Italian ryegrass (Lolium multiflorum); conditions: amount of applied herbicide 320 g/ha
How it was run: as §1

blackgrass [4] = assay: Test Example 4: herbicidal effect by soil treatment (Table 19, symbol J); type: in vivo, blackgrass (Alopecurus myosuroides); conditions: amount of applied herbicide 320 g/ha
How it was run: as §1

barnyard grass [5] = assay: Test Example 4: herbicidal effect by soil treatment (Table 19, symbol H); type: in vivo, barnyard grass (Echinochloa crus-galli); conditions: amount of applied herbicide 320 g/ha
How it was run: as §1

false cleavers [6] = assay: Test Example 4: herbicidal effect by soil treatment (Table 19, symbol Q); type: in vivo, false cleavers (Galium spurium); conditions: amount of applied herbicide 320 g/ha
How it was run: as §1

persian speedwell [7] = assay: Test Example 4: herbicidal effect by soil treatment (Table 19, symbol R); type: in vivo, Persian speedwell (Veronica persica); conditions: amount of applied herbicide 320 g/ha
How it was run: as §1

green foxtail [8] = assay: Test Example 5: herbicidal effect by foliage application, plastic box (Table 20, symbol G); type: in vivo, green foxtail (Setaria viridis); conditions: foliage application, AAH 320 g/ha, three weeks after application
How it was run: as §2

lambsquarters [9] = assay: Test Example 4: herbicidal effect by soil treatment (Table 19, symbol O); type: in vivo, lambsquarters (Chenopodium album); conditions: amount of applied herbicide 320 g/ha
How it was run: as §1

green foxtail [10] = assay: Test Example 4: herbicidal effect by soil treatment (Table 19, symbol G); type: in vivo, green foxtail (Setaria viridis); conditions: amount of applied herbicide 320 g/ha
How it was run: as §1

velvetleaf [11] = assay: Test Example 5: herbicidal effect by foliage application, plastic box (Table 20, symbol M); type: in vivo, velvetleaf (Abutilon theophrasti); conditions: foliage application, AAH 320 g/ha, three weeks after application
How it was run: as §2

southern crabgrass [12] = assay: Test Example 4: herbicidal effect by soil treatment (Table 19, symbol F); type: in vivo, southern crabgrass (Digitaria ciliaris); conditions: amount of applied herbicide 320 g/ha
How it was run: as §1

barnyard grass [13] = assay: Test Example 5: herbicidal effect by foliage application, plastic box (Table 20, symbol H); type: in vivo, barnyard grass (Echinochloa crus-galli); conditions: foliage application, AAH 320 g/ha, three weeks after application
How it was run: as §2

barnyard grass [14] = assay: Test Example 3: herbicidal effect by foliage application, Wagner pot (Table 18, symbol H); type: in vivo, barnyard grass (Echinochloa crus-galli); conditions: 320 g/ha
How it was run: (§3)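 Plants were sown in alluvial soil held under 0.1–0.5 cm standing water and grown 14 days in a greenhouse at 25–30 °C. An emulsifiable formulation, water-diluted to the set dose, was then sprayed onto the foliage, and effects were scored three weeks later using previously defined criteria.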

false cleavers [15] = assay: Test Example 5: herbicidal effect by foliage application, plastic box (Table 20, symbol Q); type: in vivo, false cleavers (Galium spurium); conditions: foliage application, AAH 320 g/ha, three weeks after application
How it was run: as §2

blackgrass [16] = assay: Test Example 5: herbicidal effect by foliage application, plastic box (Table 20, symbol J); type: in vivo, blackgrass (Alopecurus myosuroides); conditions: foliage application, AAH 320 g/ha, three weeks after application
How it was run: as §2

windgrass [17] = assay: Test Example 5: herbicidal effect by foliage application, plastic box (Table 20, symbol L); type: in vivo, windgrass (Apera spica-venti); conditions: foliage application, AAH 320 g/ha, three weeks after application
How it was run: as §2

rice flat sedge = assay: Test Example 3: herbicidal effect by foliage application, Wagner pot (Table 18, symbol E); type: in vivo, rice flat sedge (Cyperus iria); conditions: 320 g/ha
How it was run: as §3

wild oat [18] = assay: Test Example 4: herbicidal effect by soil treatment (Table 19, symbol I); type: in vivo, wild oat (Avena fatua); conditions: amount of applied herbicide 320 g/ha
How it was run: as §1

southern crabgrass [19] = assay: Test Example 5: herbicidal effect by foliage application, plastic box (Table 20, symbol F); type: in vivo, southern crabgrass (Digitaria ciliaris); conditions: foliage application, AAH 320 g/ha, three weeks after application
How it was run: as §2

Chinese sprangletop = assay: Test Example 3: herbicidal effect by foliage application, Wagner pot (Table 18, symbol D); type: in vivo, chinese sprangletop (Leptochloa chinensis); conditions: 320 g/ha
How it was run: as §3

chickweed [20] = assay: Test Example 4: herbicidal effect by soil treatment (Table 19, symbol P); type: in vivo, common chickweed (Stellaria media); conditions: amount of applied herbicide 320 g/ha
How it was run: as §1

persian speedwell [21] = assay: Test Example 5: herbicidal effect by foliage application, plastic box (Table 20, symbol R); type: in vivo, Persian speedwell (Veronica persica); conditions: foliage application, AAH 320 g/ha, three weeks after application
How it was run: as §2

windgrass [22] = assay: Test Example 4: herbicidal effect by soil treatment (Table 19, symbol L); type: in vivo, windgrass (Apera spica-venti); conditions: amount of applied herbicide 320 g/ha
How it was run: as §1

Italian ryegrass [23] = assay: Test Example 5: herbicidal effect by foliage application, plastic box (Table 20, symbol K); type: in vivo, Italian ryegrass (Lolium multiflorum); conditions: foliage application, AAH 320 g/ha, three weeks after application
How it was run: as §2

chickweed [24] = assay: Test Example 5: herbicidal effect by foliage application, plastic box (Table 20, symbol P); type: in vivo, common chickweed (Stellaria media); conditions: foliage application, AAH 320 g/ha, three weeks after application
How it was run: as §2

lambsquarters [25] = assay: Test Example 5: herbicidal effect by foliage application, plastic box (Table 20, symbol O); type: in vivo, lambsquarters (Chenopodium album); conditions: foliage application, AAH 320 g/ha, three weeks after application
How it was run: as §2

redroot pigweed = assay: Test Example 4: herbicidal effect by soil treatment (Table 19, symbol N); type: in vivo, redroot pigweed (Amaranthus retroflexus); conditions: amount of applied herbicide 320 g/ha
How it was run: as §1

Cc1nn(C)c(=O)c(-c2c(-c3ccc4c(c3)OC(F)(F)O4)sc3ccccc23)c1O [1-099]
herbicidal effect rating, M: velvetleaf (velvetleaf [1]): 0 (Herbicidal rate of 5% or less (almost no effect))
I: wild oat, herbicidal effect (wild oat [2]): 0 (Herbicidal rate of 5% or less (almost no effect))
herbicidal effect rating, K: Italian ryegrass (Italian ryegrass [3]): 0 (Herbicidal rate of 5% or less (almost no effect))
herbicidal effect rating, J: blackgrass (blackgrass [4]): 0 (Herbicidal rate of 5% or less (almost no effect))
herbicidal effect rating, H: barnyard grass (barnyard grass [5]): 0 (Herbicidal rate of 5% or less (almost no effect))
herbicidal effect rating, Q: false cleavers (false cleavers [6]): 2 (Herbicidal rate of 20% or more and less than 40%)
herbicidal effect rating, R: persian speedwell (persian speedwell [7]): 5 (Herbicidal rate of 90% or more (almost completely withered))
G: green foxtail, herbicidal effect (green foxtail [8]): 0 (Herbicidal rate of 5% or less (almost no effect))
herbicidal effect rating, O: lambsquarters (lambsquarters [9]): 0 (Herbicidal rate of 5% or less (almost no effect))
herbicidal effect rating, G: green foxtail (green foxtail [10]): 0 (Herbicidal rate of 5% or less (almost no effect))
M: velvetleaf, herbicidal effect (velvetleaf [11]): 5 (Herbicidal rate of 90% or more (almost completely withered))
herbicidal effect rating, F: southern crabgrass (southern crabgrass [12]): 0 (Herbicidal rate of 5% or less (almost no effect))
H: barnyard grass, herbicidal effect (barnyard grass [13]): 0 (Herbicidal rate of 5% or less (almost no effect))
herbicidal effect on H (barnyard grass), rating 0-5 (barnyard grass [14]): 0 (Herbicidal rate of 5% or less (almost no effect))
Q: false cleavers, herbicidal effect (false cleavers [15]): 2 (Herbicidal rate of 20% or more and less than 40%)
J: blackgrass, herbicidal effect (blackgrass [16]): 1 (Herbicidal rate of 5% or more and less than 20%)
L: windgrass, herbicidal effect (windgrass [17]): 0 (Herbicidal rate of 5% or less (almost no effect))
herbicidal effect on E (rice flat sedge), rating 0-5 (rice flat sedge): 5 (Herbicidal rate of 90% or more (almost completely withered))
herbicidal effect rating, I: wild oat (wild oat [18]): 0 (Herbicidal rate of 5% or less (almost no effect))
F: southern crabgrass, herbicidal effect (southern crabgrass [19]): 0 (Herbicidal rate of 5% or less (almost no effect))
herbicidal effect on D (Chinese sprangletop), rating 0-5 (Chinese sprangletop): 0 (Herbicidal rate of 5% or less (almost no effect))
herbicidal effect rating, P: chickweed (chickweed [20]): 4 (Herbicidal rate of 70% or more and less than 90%)
R: persian speedwell, herbicidal effect (persian speedwell [21]): 5 (Herbicidal rate of 90% or more (almost completely withered))
herbicidal effect rating, L: windgrass (windgrass [22]): 0 (Herbicidal rate of 5% or less (almost no effect))
K: Italian ryegrass, herbicidal effect (Italian ryegrass [23]): 3 (Herbicidal rate of 40% or more and less than 70%)
P: chickweed, herbicidal effect (chickweed [24]): 5 (Herbicidal rate of 90% or more (almost completely withered))
O: lambsquarters, herbicidal effect (lambsquarters [25]): 3 (Herbicidal rate of 40% or more and less than 70%)
herbicidal effect rating, N: redroot pigweed (redroot pigweed): 0 (Herbicidal rate of 5% or less (almost no effect))
